EC50 data for 15 compounds are collected here from patent publication US10351546B2, “Pyridin-3-yl acetic acid derivatives as inhibitors of human immunodeficiency virus replication” (priority 2015, dated 2019).

In the first test the test system is NL-RLuc virus. As to the kind of experiment: Inhibition of HIV replication (NL-RLuc luciferase reporter virus in MT-2 cells). Format: cell-based. To be noted: Human immunodeficiency virus 1, MT2, 120 h, read-out: Activity. The method in brief:
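MT-2 cells were infected with NL4-3-derived virus carrying Renilla luciferase in place of part of nef, in RPMI/10% FBS, with serial compound dilutions. Luciferase read after 5 days of multicycle replication. EC50 from the median effect equation, at least 2 experiments.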
In general terms: In a reporter assay the amount or activity of a reporter protein is the signal.
Turning to `Cc1nc(CN(C)CC2CCCCC2)c(-c2ccc(OCCc3ccc(F)cc3)cc2)c(N2CCC(C)(C)CC2)c1[C@H](OC(C)(C)C)C(=O)O` [Example 100, (S)-2-(tert-Butoxy)-2-(6-(((cyclohexylmethyl)(methyl)amino)methyl)-4-(4,4-dimethylpiperidin-1-yl)-5-(4-(4-fluorophenethoxy)phenyl)-2-methylpyridin-3-yl)acetic acid], the EC50 was below 0.1 µM.

Turning to `CNCc1nc(C)c([C@H](OC(C)(C)C)C(=O)O)c(N2CCC(C)(C)CC2)c1-c1ccc(OCCc2ccc(F)cc2)cc1` [Example 64, (S)-2-(tert-Butoxy)-2-(4-(4,4-dimethylpiperidin-1-yl)-5-(4-(4-fluorophenethoxy)phenyl)-2-methyl-6-((methylamino)methyl)pyridin-3-yl)acetic acid], the EC50 is below 0.1 µM. The same measure, in the same setting: then `Cc1cc(F)ccc1CN1CCc2cc(-c3c(CN4CCS(=O)(=O)CC4)nc(C)c([C@H](OC(C)(C)C)C(=O)O)c3N3CCC(C)(C)CC3)ccc2C1` [Example 123, (S)-2-(tert-Butoxy)-2-(4-(4,4-dimethylpiperidin-1-yl)-6-((1,1-dioxidothiomorpholino)methyl)-5-(2-(4-fluoro-2-methylbenzyl)-1,2,3,4-tetrahydroisoquinolin-6-yl)-2-methylpyridin-3-yl)acetic acid], with below 0.1 µM; and `Cc1cccc(Cl)c1CN1CCc2cc(-c3c(CN4CCC5(CC4)CC5)nc(C)c([C@H](OC(C)(C)C)C(=O)O)c3N3CCC(C)(C)CC3)ccc2C1` [Example 178, (S)-2-(6-((6-Azaspiro[2.5]octan-6-yl)methyl)-5-(2-(2-chloro-6-methylbenzyl)-1,2,3,4-tetrahydroisoquinolin-6-yl)-4-(4,4-dimethylpiperidin-1-yl)-2-methylpyridin-3-yl)-2-(tert-butoxy)acetic acid], with below 0.1 µM; and `Cc1nc(CN2CCCc3ccccc32)c(-c2ccc(OCCc3ccc(F)cc3)cc2)c(N2CCC(C)(C)CC2)c1[C@H](OC(C)(C)C)C(=O)O` [Example 89, (S)-2-(tert-Butoxy)-2-(6-((3,4-dihydroquinolin-1(2H)-yl)methyl)-4-(4,4-dimethylpiperidin-1-yl)-5-(4-(4-fluorophenethoxy)phenyl)-2-methylpyridin-3-yl)acetic acid], with below 0.1 µM. With `Cc1cccc(Cl)c1CN1CCc2cc(-c3c(CN4CCCCC4)nc(C)c([C@H](OC(C)(C)C)C(=O)O)c3N3CCC(C)(C)CC3)ccc2C1` [Example 177, (S)-2-(tert-Butoxy)-2-(5-(2-(2-chloro-6-methylbenzyl)-1,2,3,4-tetrahydroisoquinolin-6-yl)-4-(4,4-dimethylpiperidin-1-yl)-2-methyl-6-(piperidin-1-ylmethyl)pyridin-3-yl)acetic acid], the EC50 was below 0.1 µM.

Consider `Cc1cc(F)ccc1CN1CCc2cc(-c3c(CN4[C@@H]5CC[C@H]4CN(C)C5)nc(C)c([C@H](OC(C)(C)C)C(=O)O)c3N3CCC(C)(C)CC3)ccc2C1` [Example 138, (S)-2-(tert-Butoxy)-2-(4-(4,4-dimethylpiperidin-1-yl)-5-(2-(4-fluoro-2-methylbenzyl)-1,2,3,4-tetrahydroisoquinolin-6-yl)-2-methyl-6-(((1R,5S)-3-methyl-3,8-diazabicyclo[3.2.1]octan-8-yl)methyl)pyridin-3-yl)acetic acid], for which the EC50 is below 0.1 µM. Still for that read-out and setting: for `Cc1ncn(Cc2nc(C)c([C@H](OC(C)(C)C)C(=O)O)c(N3CCC(C)(C)CC3)c2-c2ccc(OCCc3ccc(F)cc3)cc2)n1` [Example 31, (S)-2-(tert-Butoxy)-2-(4-(4,4-dimethylpiperidin-1-yl)-5-(4-(4-fluorophenethoxy)phenyl)-2-methyl-6-((3-methyl-1H-1,2,4-triazol-1-yl)methyl)pyridin-3-yl)acetic acid] the value was below 0.1 µM; for `C#Cc1nc(C)c([C@H](OC(C)(C)C)C(=O)O)c(N2CCC(C)(C)CC2)c1-c1ccc(OCCc2ccc(F)cc2)cc1` [Example 161, (S)-2-(tert-Butoxy)-2-(4-(4,4-dimethylpiperidin-1-yl)-6-ethynyl-5-(4-(4-fluorophenethoxy)phenyl)-2-methylpyridin-3-yl)acetic acid], below 0.1 µM.

Turning to `Cc1nc(CNC=O)c(-c2ccc(OCCc3ccc(F)cc3)cc2)c(N2CCC(C)(C)CC2)c1[C@H](OC(C)(C)C)C(=O)O` [Example 107, (S)-2-(tert-Butoxy)-2-(4-(4,4-dimethylpiperidin-1-yl)-5-(4-(4-fluorophenethoxy)phenyl)-6-(formamidomethyl)-2-methylpyridin-3-yl)acetic acid], the EC50 is below 0.1 µM.

With `Cc1nc(CN(C)CC2CCOCC2)c(-c2ccc(OCCc3ccc(F)cc3)cc2)c(N2CCC(C)(C)CC2)c1[C@H](OC(C)(C)C)C(=O)O` [Example 84, (S)-2-(tert-Butoxy)-2-(4-(4,4-dimethylpiperidin-1-yl)-5-(4-(4-fluorophenethoxy)phenyl)-2-methyl-6-((methyl((tetrahydro-2H-pyran-4-yl)methyl)amino)methyl)pyridin-3-yl)acetic acid], the EC50 is below 0.1 µM. The same measure, in the same setting: for `Cc1nc(CN2CCC2)c(-c2ccc(OCCc3ccc(F)cc3)cc2)c(N2CCC(C)(C)CC2)c1[C@H](OC(C)(C)C)C(=O)O` [Example 81, (S)-2-(6-(Azetidin-1-ylmethyl)-4-(4,4-dimethylpiperidin-1-yl)-5-(4-(4-fluorophenethoxy)phenyl)-2-methylpyridin-3-yl)-2-(tert-butoxy)acetic acid] the value was below 0.1 µM; for `COCc1nc(C)c([C@H](OC(C)(C)C)C(=O)O)c(N2CCC(C)(C)CC2)c1-c1ccc2c(c1)CCN(Cc1ccc(F)cc1C)C2` [Example 157, (S)-2-(tert-Butoxy)-2-(4-(4,4-dimethylpiperidin-1-yl)-5-(2-(4-fluoro-2-methylbenzyl)-1,2,3,4-tetrahydroisoquinolin-6-yl)-6-(methoxymethyl)-2-methylpyridin-3-yl)acetic acid], below 0.1 µM; for `Cc1nc(COCC2CCOCC2)c(-c2ccc(OCCc3ccc(F)cc3)cc2)c(N2CCC(C)(C)CC2)c1[C@H](OC(C)(C)C)C(=O)O` [Example 19, (S)-2-(tert-Butoxy)-2-(4-(4,4-dimethylpiperidin-1-yl)-5-(4-(4-fluorophenethoxy)phenyl)-2-methyl-6-(((tetrahydro-2H-pyran-4-yl)methoxy)methyl)pyridin-3-yl)acetic acid], below 0.1 µM.

Staying with this test, now noted: Human immunodeficiency virus 1, MT2, 120 h, read-out: EC50 μM.
Consider `Cc1nc(CN(C)CC2CCCCC2)c(-c2ccc(OCCc3ccc(F)cc3)cc2)c(N2CCC(C)(C)CC2)c1[C@H](OC(C)(C)C)C(=O)O` [Example 100, (S)-2-(tert-Butoxy)-2-(6-(((cyclohexylmethyl)(methyl)amino)methyl)-4-(4,4-dimethylpiperidin-1-yl)-5-(4-(4-fluorophenethoxy)phenyl)-2-methylpyridin-3-yl)acetic acid], for which the EC50 worked out at 0.003 µM.

On to `Cc1ncn(Cc2nc(C)c([C@H](OC(C)(C)C)C(=O)O)c(N3CCC(C)(C)CC3)c2-c2ccc(OCCc3ccc(F)cc3)cc2)n1` [Example 31, (S)-2-(tert-Butoxy)-2-(4-(4,4-dimethylpiperidin-1-yl)-5-(4-(4-fluorophenethoxy)phenyl)-2-methyl-6-((3-methyl-1H-1,2,4-triazol-1-yl)methyl)pyridin-3-yl)acetic acid], for which the EC50 amounted to 0.009 µM.

The same test, now with this note: read-out: Activity; NL-RLuc virus in MT-2 cells, 5 days of incubation, luciferase readout.
`Cc1cc(F)ccc1CN1CCc2cc(-c3c(C(C)N(C)CC4CCOCC4)nc(C)c([C@H](OC(C)(C)C)C(=O)O)c3N3CCC(C)(C)CC3)ccc2C1` (single isomer, unassigned) [Example 151]: the EC50 was below 0.1 µM.
